Laboratory results published in publication PMC9166766 (Experimental & Molecular Medicine, 2022).
No end group written: not given here.

Experiments:
[1] = system: CABIN1 peptide-CNA interaction; assay: Immunoprecipitation of HA-mCherry-CABIN1 peptide and bound CNA from treated Jurkat T cells; format: cell-based; details: for CABIN1 peptide binding to CNA, effect of p38 inhibitor: 10 μM inhibitor, 16 h, n = 6
Excerpt: We lysed the cells in IP150 buffer and immunoprecipitated Flag- and HA-tagged proteins with Anti-FLAG ® M2 Affinity Gel (Sigma–Aldrich) and Pierce™ Anti-HA Agarose (Thermo Fisher Scientific), respectively. […] To quantify the western blot results, we measured the band areas using ImageJ (https://imagej.nih.gov/ij/).
Values shown are the mean ± standard deviation.

[2] = system: CABIN1 peptide threonine 9 phosphorylation; assay: Phosphorylation of threonine 9 of the expressed peptide in Jurkat T cells (PXpTP western blot, LC-MS/MS); format: cell-based; details: Jurkat; for phosphorylation of the CABIN1 peptide, effect of p38 inhibitor: 10 μM inhibitor, 16 h, n = 6
Excerpt: We lysed the cells in IP150 buffer and immunoprecipitated Flag- and HA-tagged proteins with Anti-FLAG ® M2 Affinity Gel (Sigma–Aldrich) and Pierce™ Anti-HA Agarose (Thermo Fisher Scientific), respectively. The composition of the buffer and the subsequent process was described previously. To quantify the western blot results, we measured the band areas using ImageJ (https://imagej.nih.gov/ij/).
We purified HA-mCherry-tagged CABIN1-L-1-2 peptides expressed in Jurkat T cells by immunoprecipitating 4 mg of lysates with Pierce™ Anti-HA Agarose. We eluted the bead-bound proteins by competition with 1 mg/ml HA peptide. After separation by SDS-PAGE and staining with Coomassie Brilliant Blue, we analyzed the purified proteins by LC-MS/MS (ProteomeTech, Inc., Seoul, Korea).
(§1) RU response units, NC negative control.
The phosphorylated threonine of the immunoprecipitated peptide with HA antibody was detected with [PXpTP] antibody. b In vitro kinase assays using purified GST-tagged CABIN1 peptide and PKC downstream kinases. c In vitro kinase assays using purified GST-tagged peptides and kinases included in the MAPK family. d Immunoprecipitation assays using Flag-MAPKs and HA-CABIN1 in HEK293T cells. e, f In vitro kinase assays using p38α and substituted CABIN1 peptides. g Jurkat T cells expressing HA-mCherry-tagged CABIN1 peptide were treated with 10 μM p38α inhibitors for 16 h. Immunoprecipitation was performed with HA antibody and detected by western blotting. h Phosphorylated threonine and peptide-bound CNA of g were measured using ImageJ, and the ratio of phosphorylation and calcineurin binding to the CABIN1 peptide was calculated (n = 6). […] Statistical differences were determined using one-way ANOVA. *p < 0.05, **p < 0.01, ***p < 0.001, CBB Coomassie Brilliant Blue, NC negative control.

[3] = system: CNAβ2 (calcineurin catalytic subunit); assay: Mammalian two-hybrid assay (VP16 AD-CNAβ2 and GAL4 DBD-peptides, pG5-luc) in HEK293T cells; format: cell-based; details: for interaction with / binding affinity to CNA (mammalian two-hybrid): CNAβ2, 24 h, repeated three times
Procedure: (§2) To measure the transcriptional activity of NFAT, we cotransfected Jurkat T cells with GST-tagged peptides and NFAT-luc by electroporation. After 24 h, we pretreated the cells with 0.5 μM FK506 for 1 h and then treated them with 40 nM PMA and 1 μM ionomycin for 8 h. For the mammalian two-hybrid assay, we cotransfected HEK293T cells with GAL4 DBD-tagged CABIN1, VIVIT, chimeric and substituted peptides, VP16 activation domain-tagged CNAβ2, and pG5-luc (luciferase reporter plasmid containing the GAL4-responsive promoter) for 24 h. We lysed the harvested cells with a luciferase assay lysis buffer (17 mM KH2PO4, 183 mM K2HPO4, pH 7.8, 0.2% [v/v] Triton X-100) and sonicated them briefly. We measured luciferase activity for each cell lysate using an Infinite M200 (Tecan, Männedorf, Switzerland). In addition, we confirmed the expression level of the transfected proteins by Western blotting.
A mammalian two-hybrid assay using these peptides was performed (bottom). The compositions of the transfected DNA are described in Supplementary Fig. 1a–c. All experiments were repeated three times and are presented as the mean ± standard deviation. […] SE short exposure, LE long exposure, NC negative control, WT wild-type.
(§3) NC negative control, WT wild-type.

ERK2 = assay: In vitro kinase assay, ERK2; format: biochemical; details: GST-tagged peptide, 1 h, 30 °C, 50 μM ATP
Procedure: (§4) We used the purified GST-tagged peptides for the in vitro kinase assays with activated recombinant kinases obtained from Proqinase GmbH (Freiburg, Germany). We performed the kinase assays in reaction buffer (50 mM HEPES-NaOH, pH 7.5, 3 mM MgCl2, 3 mM MnCl2, 3 μM sodium orthovanadate, 1 mM dithiothreitol, 50 μM unlabeled ATP, 5 μCi ^32P-γ-ATP) for 1 h at 30 °C. We stopped the reaction by adding 5× sample buffer and separated the proteins using SDS-PAGE. The gel was stained with Coomassie Brilliant Blue, dried, and developed on X-ray film.
(§5) The phosphorylated threonine of the immunoprecipitated peptide with HA antibody was detected with [PXpTP] antibody. b In vitro kinase assays using purified GST-tagged CABIN1 peptide and PKC downstream kinases. c In vitro kinase assays using purified GST-tagged peptides and kinases included in the MAPK family. d Immunoprecipitation assays using Flag-MAPKs and HA-CABIN1 in HEK293T cells. e, f In vitro kinase assays using p38α and substituted CABIN1 peptides. g Jurkat T cells expressing HA-mCherry-tagged CABIN1 peptide were treated with 10 μM p38α inhibitors for 16 h. Immunoprecipitation was performed with HA antibody and detected by western blotting. h Phosphorylated threonine and peptide-bound CNA of g were measured using ImageJ, and the ratio of phosphorylation and calcineurin binding to the CABIN1 peptide was calculated (n = 6). […]

p38α = assay: In vitro kinase assay, p38α; format: biochemical; details: GST-tagged peptide, 1 h, 30 °C, 50 μM ATP
Procedure: as §4, §5

JNK1 = assay: In vitro kinase assay, JNK1; format: biochemical; details: GST-tagged peptide, 1 h, 30 °C, 50 μM ATP
Procedure: as §4, §5

HIF-1α = HIF-1α stabilization in Jurkat T cells (western blot); format: cell-based; details: DMOG
Procedure: Supplementary Fig. 4 No hydroxylation or O -GlcNAcylation occurred in the “PPTP” sequence a Jurkat T cells expressing HA-mCherry -CABIN1 peptide w ere tr eated with DMO G in a dose-dependent manner for 12 h. b Jurkat T cells expressing HA-mCherry-CABIN1 peptide were treated with 500 μ M DMOG in a time-depend ent manner. Each cell lysate was immunoprecipitated with HA antibody and CABIN1 peptide-bound CNA was detected by Western blotting. HIF-1α was det ected as a positive control for DMOG treat ment. c HEK293 T cells were transfected with GST-peptides and GST pull-down assay was conducted.
Hydroxyproline and O-linked glycosylation of the peptides were detected b y Western blotting.
(§6) (1 picture or pasted object on this page, not shown here)

[4] = system: CNAβ2 (calcineurin catalytic subunit); assay: Immunoprecipitation assay of Flag-CNAβ2 and tagged peptides in HEK293T cells; format: cell-based
Excerpt: as §3, §1, §6

[5] = system: NFAT transcriptional activity; assay: NFAT-luc luciferase reporter assay in Jurkat T cells; format: cell-based; details: GST-tagged CABIN1 peptides, PMA and ionomycin, n = 3, T9V vs T6V
Procedure: as §2, §1, §6

[6] = system: CNAβ2 (calcineurin catalytic subunit); assay: In vitro His-pulldown assay of GST-tagged peptides with His-tagged CNA; format: binding; details: IP150 buffer with 0.5 mM EDTA
Procedure: (§7) GST-tagged peptides and His-tagged CNAα and β2 were expressed in Escherichia coli BL21(DE3)pLysS. When the OD600 reached 0.5, we treated the bacteria with IPTG (0.1 mM overnight at 18 °C or 1 mM for 4 h at 37 °C). We purified the proteins as described previously. We performed a His-pulldown assay with 0.5 ml of IP150 buffer with 0.5 mM EDTA. We mixed His-tagged CNA with GST-tagged peptides and captured it on Ni-NTA agarose beads (Qiagen, Hilden, Germany). We washed the beads three times with binding buffer and analyzed the proteins by western blotting. We pulled down the GST-tagged peptides using Glutathione Sepharose™ 4 Fast Flow (Cytiva, Marlborough, MA, USA) and the biotin-labeled peptides using Streptavidin Agarose Resin (Thermo Fisher Scientific).
as §3, §1

[7] = set-up: method as in PMID 24319282; details: ref [17]; cited from earlier work
Excerpt: FK506 and cyclosporin A, respectively cooperating with FKBP12 or cyclophilin, spatially hinder the substrates’ access to the active site of calcineurin, inhibiting its phosphatase activity[30],[31].

[8] = system: CNA (His-tagged calcineurin catalytic subunit); assay: Surface plasmon resonance (Biacore T200)
Procedure: Using a Biacore T200 (Cytiva), we captured the biotin-labeled peptides on the surface of a Series S Sensor Chip SA (Cytiva). […] Each cycle was performed at 25 °C at a flow rate of 30 μl/min with 120 s of contact and 240 s of dissociation. We analyzed the kinetics of interactions using BIAevaluation 3.2 RC1 (Cytiva).
Biotinylated peptide-bound CNA was detected with His antibody. […] CNA concentrations ranged from 1.25, 2.5, 5, and 10 nM. […] Values shown are the mean ± standard deviation.

[9] = system: CNA (calcineurin catalytic subunit); details: biotinylated peptides, His-CNA
Procedure: as §7, §1

[10] = biotinylated peptide on SA chip, CNA 1.25-10 nM, HBS-EP+ pH 7.4, 25 °C, 30 μl/min, mean ± SD

Question: For `CCc1nc(-c2cccc(C)c2)c(-c2ccnc(NC(=O)c3ccccc3)c2)s1` [TAK 715], which “CABIN1 peptide binding to CNA, effect of p38 inhibitor” value [1] is on record?
Answer: Its value is “decreasing its binding affinity for CNA”.

Question: And the “phosphorylation of the CABIN1 peptide, effect of p38 inhibitor” value [2]?
Answer: Its value is “significantly reduced phosphorylation of the CABIN1 peptide”.

Question: Which “interaction with / binding affinity to CNA (mammalian two-hybrid)” value (“interaction with / binding affinity” for short) [3] does the source give for “CABIN1-L-2: CABIN1-L with C-terminal residues removed (FPPEITVTPPT; also: GAL4 DNA-binding domain tag)” here?
Answer: Its value is “completely lost its binding affinity to CNA”.

Question: With `Cc1ccccc1C(=O)c1ccc(Nc2ccc(Br)cc2N)cc1Cl` [EO 1428] as the compound, how does the “CABIN1 peptide binding to CNA, effect of p38 inhibitor” value [1] read?
Answer: Its value is “decreasing its binding affinity for CNA”.

Question: What about the “phosphorylation of the CABIN1 peptide, effect of p38 inhibitor” value [2] of the same compound?
Answer: Its value is “significantly reduced phosphorylation of the CABIN1 peptide”.

Question: For “CABIN1-L: first 13-amino acid segment containing the PxIxIT motif, from CABIN1-14 (FPPEITVTPPTPT; also: GAL4 DNA-binding domain tag)”, which “interaction with / binding affinity” value [3] is on record?
Answer: Its value is “significantly stronger affinity for CNA than CABIN1-14”.

Question: Which “phosphorylation by ERK2” value (ERK2) does the source give for “VIVIT PPTP: chimeric peptide with C-terminal sequence of VIVIT swapped for PPTP of CABIN1 (PVIVITPPTP; also: GAL4 DNA-binding domain tag)” here?
Answer: The value was “phosphorylated”.

Question: And the “fold enhancement of interaction with CNA, VIVIT PPTP vs. L-1-2 WT (effect of N-terminal PVIVIT)” value ([3]; CNAβ2, VIVIT PPTP vs. L-1-2 WT)?
Answer: Its value is 1.93 fold.

Question: And the “fold enhancement of interaction with CNA, VIVIT PPTP vs. VIVIT 10-mer (effect of C-terminal PPTP)” value ([3]; CNAβ2, VIVIT PPTP vs. VIVIT 10-mer)?
Answer: The value was 4.76 fold.

Question: What about the “phosphorylation by p38α” value (p38α) of the same compound?
Answer: Its value is “phosphorylated”.

Question: What about the “phosphorylation by JNK1” value (JNK1) of the same compound?
Answer: Its value is “phosphorylated”.

Question: What does the source list for `COC(=O)CNC(=O)C(=O)OC` [DMOG, dimethyloxalylglycine]?
Answer: HIF-1α stabilization (HIF-1α): stabilized hypoxia-inducible factor-1alpha (HIF-1α); CABIN1 peptide and CNA interaction, effect of DMOG ([1]; DMOG dose-dependent 12 h or 500 μM time-dependent): did not affect the CABIN1 peptide and CNA interaction

Question: Which “interaction with / binding affinity” value [3] does the source give for “CABIN1-L-1-3: CABIN1-L-1 with N-terminal residues removed (EITVTPPTP; also: GAL4 DNA-binding domain tag)” here?
Answer: The value was “lost its binding affinity”.

Question: With `CCCCCCCCCCCCCC(=O)O[C@@H]1[C@@H](C)[C@@]2(O)[C@@H](C=C(CO)C[C@]3(O)C(=O)C(C)=C[C@@H]23)[C@@H]2C(C)(C)[C@]12OC(C)=O` [PMA, phorbol myristate acetate] as the compound, how does the “CABIN1 peptide phosphorylation after PMA” value ([2]; 40 nM PMA, two hours after treatment) read?
Answer: The value was “CABIN1 peptide phosphorylation increased”.

Question: For “CABIN1-L-1-1: CABIN1-L-1 with N-terminal residues removed (PPEITVTPPTP; also: GAL4 DNA-binding domain tag)”, which “interaction with / binding affinity” value [3] is on record?
Answer: Its value is “still bound to CNA”.

Question: What does the source list for “T9V: CABIN1 peptide with threonine 9 substituted with valine (PEITVTPPVP; not fully specified)”?
Answer: interaction with CNA by immunoprecipitation [4]: abolished the interaction in the cellular experiment; NFAT transcriptional activity restored by substitution [5]: restored the CABIN1-suppressed transcriptional activity of NFAT more efficiently than the T6V substitution; interaction with CNA in vitro (His-pulldown) [6]: not in vitro

Question: For cyclosporin A, which side effects [7] is on record?
Answer: Its side effects is “nephrotoxicity, fibrogenesis, neurotoxicity, and diabetes”.

Question: With “Biotin-AAAMAGFPPEITVTPP{pTHR}P [p-CABIN1-L-1]” as the compound, how does the “increase in binding affinity by phosphorylation of the 9th threonine” value ([8]; SPR, phosphorylated vs unphosphorylated CABIN1 peptide) read?
Answer: Its value is “increased the binding affinity by approximately threefold”.

Question: What about the “Ka (association rate)” value [8, 10] of the same compound?
Answer: The value was 3393.3±380.8 1/MS.

Question: What about the “Kd (dissociation rate)” value [8, 10] of the same compound?
Answer: The value was 5.79e-4±3.2e-5 1/S.

Question: What about the “affinity for CNA (streptavidin pulldown)” value [9] of the same compound?
Answer: Its value is “dramatically increased the affinity for CNA”.

Question: Which “interaction with CNA by immunoprecipitation” value [4] does the source give for “T6V: CABIN1 peptide with threonine 6 substituted with valine (PEITVVPPTP; also: GST and HA tags, end not given here)” here?
Answer: Its value is “abolished the interaction”.

Question: And the “interaction with CNA in vitro (His-pulldown)” value [6]?
Answer: Its value is “abolished the interaction”.
